Data taken from ChEMBL document CHEMBL1201862, “PubChem BioAssay data set” (2004).
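Interpolation was linear, between the two tested concentrations surrounding the appropriate level; five concentrations were tested over 48 hours in 96-well plates. GI50: concentration for 50% inhibition of growth.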 Activity calls are given as the source filed them. No stated cut-off is given here; in the data, active = GI50 up to about 1.1 µM and inactive = higher.

Assays:
Assay in all cases: DTP human tumour cell line panel, 48 h
786-0 = system: 786-0
A498 = system: A498
A549 = system: A549
ACHN = system: ACHN
CAKI-1 = system: CAKI-1
CCRF-CEM = system: CCRF-CEM
COLO 205 = system: COLO 205
DLD-1 = system: DLD-1
DU-145 = system: DU-145
HCC 2998 = system: HCC 2998
HCT-116 = system: HCT-116
HCT-15 = system: HCT-15
HL-60 = system: HL-60
HOP-18 = system: HOP-18
HOP-92 = system: HOP-92
HT-29 = system: HT-29
IGROV-1 = system: IGROV-1
K562 = system: K562
KM-20L2 = system: KM-20L2
KM12 = system: KM12
LOX IMVI = system: LOX IMVI
LXFL 529 = system: LXFL 529
M14 = system: M14
M19-MEL = system: M19-MEL
MOLT-4 = system: MOLT-4
Malme-3M = system: Malme-3M
NCI-H226 = system: NCI-H226
NCI-H23 = system: NCI-H23
NCI-H460 = system: NCI-H460
NCI-H522 = system: NCI-H522
OVCAR-3 = system: OVCAR-3
OVCAR-4 = system: OVCAR-4
OVCAR-5 = system: OVCAR-5
OVCAR-8 = system: OVCAR-8
RPMI-8226 = system: RPMI-8226
RXF 393 = system: RXF 393
SF-268 = system: SF-268
SF-295 = system: SF-295
SF-539 = system: SF-539
SK-MEL-28 = system: SK-MEL-28
SK-MEL-2 = system: SK-MEL-2
SK-MEL-5 = system: SK-MEL-5
SK-OV-3 = system: SK-OV-3
SN12C = system: SN12C
SNB-19 = system: SNB-19
SNB-75 = system: SNB-75
SNB-78 = system: SNB-78
SR = system: SR
SW-620 = system: SW-620
TK-10 = system: TK-10
U-251 = system: U-251
UACC-257 = system: UACC-257
UACC-62 = system: UACC-62
UO-31 = system: UO-31

O/N=C1/CCCC/C1=C/C=C/c1ccccc1
GI50 (786-0): 23.2 µM (inactive) | GI50 (A498): 20.9 µM (inactive) | GI50 (A549): 22.8 µM (inactive) | GI50 (ACHN): 25.6 µM (inactive) | GI50 (CAKI-1): 35.7 µM (inactive) | GI50 (CCRF-CEM): 20.6 µM (inactive) | GI50 (COLO 205): 19.4 µM (inactive) | GI50 (DLD-1): 29.6 µM (inactive) | GI50 (DU-145): 22.1 µM (inactive) | GI50 (HCC 2998): 22.1 µM (inactive) | GI50 (HCT-116): 15.7 µM (inactive) | GI50 (HCT-15): 14.9 µM | GI50 (HL-60): 13.1 µM (inactive) | GI50 (HOP-18): 25.8 µM (inactive) | GI50 (HOP-92): 15.5 µM (inactive) | GI50 (HT-29): 18.3 µM (inactive) | GI50 (IGROV-1): 16.5 µM (inactive) | GI50 (K562): 18.4 µM (inactive) | GI50 (KM-20L2): 18.5 µM (inactive) | GI50 (KM12): 20.1 µM (inactive) | GI50 (LOX IMVI): 17.2 µM (inactive) | GI50 (LXFL 529): 26 µM (inactive) | GI50 (M14): 21.2 µM (inactive) | GI50 (M19-MEL): 19.7 µM (inactive) | GI50 (MOLT-4): 19 µM (inactive) | GI50 (Malme-3M): 21.3 µM (inactive) | GI50 (NCI-H226): 23.6 µM (inactive) | GI50 (NCI-H23): 22.8 µM (inactive) | GI50 (NCI-H460): 22.7 µM (inactive) | GI50 (NCI-H522): 19.1 µM (inactive) | GI50 (OVCAR-3): 17.9 µM (inactive) | GI50 (OVCAR-4): 30.3 µM (inactive) | GI50 (OVCAR-5): 26.7 µM (inactive) | GI50 (OVCAR-8): 41.9 µM (inactive) | GI50 (RPMI-8226): 18.6 µM (inactive) | GI50 (RXF 393): 19.4 µM (inactive) | GI50 (SF-268): 19.1 µM (inactive) | GI50 (SF-295): 21.8 µM (inactive) | GI50 (SF-539): 20.2 µM (inactive) | GI50 (SK-MEL-28): 3.42 µM (inactive) | GI50 (SK-MEL-2): 17.7 µM (inactive) | GI50 (SK-MEL-5): 16.5 µM (inactive) | GI50 (SK-OV-3): 39 µM (inactive) | GI50 (SN12C): 17.8 µM (inactive) | GI50 (SNB-19): 48 µM (inactive) | GI50 (SNB-75): 20.4 µM (inactive) | GI50 (SNB-78): 25.5 µM (inactive) | GI50 (SR): 5.71 µM (inactive) | GI50 (SW-620): 26.5 µM (inactive) | GI50 (TK-10): 29 µM (inactive) | GI50 (U-251): 16.7 µM (inactive) | GI50 (UACC-257): 24.9 µM (inactive) | GI50 (UACC-62): 18.6 µM (inactive) | GI50 (UO-31): 20.6 µM (inactive)
